This is an account of results in patent US20200031920A1, “Combination Therapy for Treating Cancer” (The George Washington University, priority 2017, published 2020).

One experiment has as its system SKOV3 CR cells. In words: clonogenic (colony formation) assay. The experiment is classed as cell-based. The conditions noted are these: 0.1 μM LY2784544 and 0.5 μM cisplatin, 14 days. The protocol: FIG. 16 is an illustration showing representative colony formation (A) and bar graphs ((B)-(C)). SKOV3 parental and resistant cells were treated with 0.1 μM LY2784544 and 0.5 μM cisplatin for 14 days and quantification data of colony formation assays ((B) and (C)). Colonies in (A) were stained with crystal violet. Data are represented as mean±SD from three independent experiments performed in triplicate. *p<0.05, **p<0.01, ***p<0.001.
Clonogenic assays were conducted to evaluate the cell survival of SKOV3 and SKOV3 CR cells in response to cisplatin, LY2784544, or both cisplatin and LY2784544. […] Currently, carboplatin-based chemotherapy becomes a universal choice. The synergistic effect of LY2784544 with carboplatin on SKOV3 CR cells was also examined.

Another experiment relates to IL-11. In words: IL-11 secretion by ELISA in cell culture medium. The experiment is classed as cell-based, human. The conditions noted are these: SKOV3 cells, various small doses of cisplatin, four days. The protocol: FIG. 69 are bar graphs ((A)-(C) and (E)-(F)) and illustrations ((D) and (G)) showing that reactive oxygen species (ROS) induces IL-11 expression. (A) is a bar graph showing quantification of ROS production in SKOV3 and SKOV3 CR cells. Data are represented as means±SD from three independent experiments. **p<0.01. Scale bar, 100 μm. (B) is a bar graph showing quantification of ROS production in SKOV3 CR cells after treatment with the ROS inhibitor YCG063 at 20 μM for 24 hr. Data are represented as means±SD from three independent experiments. ***p<0.001. (C) is a bar graph showing IL-11 levels measured by ELISA in the medium of SKOV3 CR cells treated with YCG063 at 20 μM for 24 hr. Data are represented as mean±SD from three independent experiments performed in triplicate. ***p<0.001. (D) is an illustration showing an immunoblot of phosphorylated JAK2 and STAT5 in SKOV3 CR cells treated with YCG063 (20 μM) for 24 hr. (E) is a bar graph showing quantification of ROS production in SKOV3 cells after treated with the ROS inhibitor YCG063 (20 μM), cisplatin (1 μM), or both for 24 hr. Data are represented as means±SD from three independent experiments. **p<0.01, ***p<0.001, n.s. means not significant by one-way ANOVA. (F) is a bar graph showing IL-11 levels measured by ELISA in SKOV3 cells treated with YCG063 (20 μM), cisplatin (1 μM) or both for 24 hr. Data are represented as mean±SD from three independent experiments performed in triplicate. ***p<0.001 by one-way ANOVA. (G) is an illustration showing an immunoblot of phosphorylated JAK2 and STAT5 in SKOV3 CR cells treated with YCG063 (20 μM), cisplatin (1 μM) or both for 24 hr.
Next, the factor from medium that contributes to cisplatin resistance of SKOV3 CR cells was investigated. […] The cell-free culture medium, mouse serum, and patient serum were analyzed for IL-11 levels using a human IL-11 ELISA kit (R&D Systems) according to the manufacturer's instructions. The absorbance was read at 450 nm using a microplate reader (BioTek). The data were normalized to the cell number. […]
Background: An ELISA detects its analyte on a solid surface through an enzyme-linked reagent.

The next experiment concerns SKOV3 xenograft tumors. Put plainly: SKOV3 and SKOV3 CR xenograft tumors treated with cisplatin. The experiment is classed as in vivo, nude mice. How it is done:
FIG. 4 is an illustration showing representative TUNEL staining (A) and a bar graph (B) of SKOV3 and SKOV3 CR xenograft tumors treated with cisplatin for two weeks (2 mg/kg or 4 mg/kg cisplatin twice per week) and quantified apoptosis percentage (B). n−3 mice/group. Bar in (A)−50 μm. Data are represented as mean±SD. **p<0.01, ***p<0.001.
FIG. 52 is a bar graph showing IL-11 levels measured by ELISA in plasma of mice bearing SKOV3 xenograft tumors treated with vehicle or cisplatin (2-6 mg/kg/twice a week intraperitoneally for 2 weeks). Data are represented as mean±SD. n=3 mice/group. **p<0.01, ***p<0.001.
Since cisplatin exerts its anticancer effect mainly through its ability to cause DNA damage, resulting in apoptosis, the apoptotic cells in both SKOV3 and SKOV CR cells were measured using Annexin V and Propidium Iodide staining. […] To test whether SKOV3 CR cells are resistant to cisplatin-induced apoptosis in vivo, both SKOV3 and SKOV3 CR cells were injected into nude mice to form xenograft tumors. Once the tumor size reached 100-150 mm^3, cisplatin was given to mice by intraperitoneal injections twice a week for 2 weeks. Three days after treatment, the apoptosis in tumors was examined by TUNEL staining. […] Currently, carboplatin is a more commonly used platinum drug employed clinically to treat ovarian patients. Ozols et al., J Clin Oncol 21: 3194-3200 (2003). Thus, it was tested whether SKOV3 CR cells are also resistant to carboplatin (Sigma-Aldrich).
To further test whether ovarian cancer cells have a similar response to cisplatin in vivo, SKOV3 xenograft tumors were treated with various doses of cisplatin (2 mg-6 mg/kg/twice per week) for 2 weeks. Mice were sacrificed 4 days after the last treatment, and blood samples and xenograft tumors were collected to examine IL-11 expression. […] A high dose of cisplatin generated the high levels of both IL-11 and pJAK2 (Y1007/1008) on tumors (FIG. 53). Thus, cisplatin is able to promote expression of IL-11 as well as JAK2 pathway both in vitro and in vivo.

Setting [1] is: SKOV3 xenograft, cisplatin 2-6 mg/kg twice per week for 2 weeks.

In the case of `Cc1cc(Nc2cc(CN3CCOCC3)c3nc(C)c(Cc4ccc(Cl)cc4F)n3n2)n[nH]1` [LY2784544], the “cell survival, combined treatment compared to cisplatin treatment” value in the experiment with SKOV3 CR cells is given as “significantly reduced the survival of SKOV3 CR”.
Regarding `N.N.[Cl][Pt][Cl]` [cisplatin], the IL-11 secretion entry with IL-11 was “increased in a cisplatin dose dependent manner”. Besides, in the experiment on SKOV3 xenograft tumors (setting [1]), the “IL-11 and pJAK2 levels in tumors (IHC)” value was “significant increase of IL-11 as well as pJAK2 (Y1007/1008) levels in SKOV3 tumors”; the “human IL-11 levels in serum” value is on record as “dramatically increased human IL-11 levels in serum of nude mice”. In addition, the “apoptosis in xenograft tumors (TUNEL)” value in the experiment on SKOV3 xenograft tumors (cisplatin i.p. twice a week for 2 weeks (2 or 4 mg/kg), three days after treatment) is “apoptotic population was significantly increased in SKOV3 but not in SKOV3 CR cells”.
